# Strand notation (5' to 3'): a small letter for the sugar, then the base; units joined by * are phosphorothioate-linked, units joined directly phosphodiester-linked; [ ] holds rarer units or linkages, { } end groups; capitals alone tell only the bases. [PALM-N] = nucleoside bearing a 2'-(butylacetamido)-palmitamide (C16 palmitic acid) substituent (N: the base); e = 2'-O-(2-methoxyethyl) (MOE); l = locked nucleic acid (LNA); [5mC] = 5-methylcytosine; d = 2'-deoxy (DNA)
# Legend:
# PTEN mRNA = PTEN mRNA levels in liver, kidney and fat, Balb/c mice, single 8 μmol/kg i.p. (Example 6, Table 48); type: in vivo, mouse; conditions: 8 μmol/kg single i.p., 72 h, saline = 100
# Description: (§1) Each dose group consisted of four animals. Shown in Table 46 are the sequences and motifs of the PTEN antisense compounds used in this study. Bolded residues indicate 2′-O-methoxyethyl moieties (2′-MOE) and italicized residues indicate Methyleneoxy BNA nucleotides. Each antisense compound comprises phosphorothioate linkages throughout. In addition, the cytosine residues in the gap of ISIS 384073 and in the wings of ISIS 392056, ISIS 392057, ISIS 392061 and ISIS 392063 are replaced with 5-methylcytosines. Antisense compounds target published PTEN nucleic acids, including Genbank Accession No. U92437.1 (SEQ ID NO: 13).
# (§2) Mice were sacrificed 72 hours following injection to determine serum transaminase levels (Table 47); liver and spleen weights (Table 47); and PTEN mRNA levels in liver, kidney and fat (Table 48), according to procedures described herein and well know to one of ordinary skill in the art.
# [1] = Transaminase levels, liver and spleen weights, body weight (Example 6, Table 47); type: in vivo, mouse; conditions: 8 μmol/kg single i.p.; 72 h; Balb/c mice
# Description: as §1, §2
# [2] = Plasma glucose in ZDF rats, once a week for twelve weeks (Example 16, Table 71); type: in vivo, rat
# Procedure: (§3) ISIS 388625, 388626 and control oligo ISIS 388628 were analyzed for their effect on ZDF rat plasma glucose levels and HbA1c. The leptin receptor deficient Zucker diabetic fatty (ZDF) rat is a useful model for the investigation of type 2 diabetes. Diabetes develops spontaneously in these male rats at ages 8-10 weeks, and is associated with hyperphagia, polyuria, polydipsia, and impaired weight gain, symptoms which parallel the clinical symptoms of diabetes (Phillips M S, et al., 1996, Nat Genet. 13, 18-19). Six week old ZDF rats were injected intraperitoneally with short antisense compound at a dose of 400 nM/kg once a week for twelve weeks. Data are illustrated in Tables 71 and 72.
# [3] = HbA1c status in ZDF rats (Example 16, Table 72); type: in vivo, rat; conditions: for Percentage HbA1c on specific dates, Day 40 / Percentage HbA1c on specific dates, Day 55 / Percentage HbA1c on specific dates, Day 68: 400 nM/kg i.p. once a week for twelve weeks; for Percentage HbA1c on specific dates, Day 40: Day 40, p < 0.001; for Percentage HbA1c on specific dates, Day 55: Day 55, p < 0.001; for Percentage HbA1c on specific dates, Day 68: Day 68, p < 0.001
# Procedure: as §3
# ApoB mRNA = ApoB mRNA in liver of Balb/c mice, palmitic acid conjugates, single i.p. dose, with ED50 (Example 30, Table 95); type: in vivo, mouse; conditions: for % Inhib: Balb/c mice, about 48 hours after dose, relative to saline-treated controls
# Procedure: 0.4, and 0.16 umol/kg. Each dose group consisted of four animals. A 5-10-5 MOE gapmer was used for a control treatment. Mice were sacrificed approximately 48 hours following the final dose. Liver tissue was collected for RNA isolation, and blood was collected for serum chemistry analyses. ApoB mRNA levels were measured by real-time PCR as described herein. ApoB mRNA levels were normalized to RNA levels as determined by RIBOGREEN, and are presented in Table 95 as percent inhibition relative to ApoB mRNA levels in saline-treated control animals.
# At the 2.5 umol/kg dose, ApoB inhibition by the short antisense compounds was greater than observed with a 5-10-5 MOE gapmer at an equivalent dose. […] Triglycerides were reduced at the 2.5 and […] doses of ISIS 387462 and ISIS 391872.
# mouse SGLT2 mRNA [4] = assay: Mouse SGLT2 mRNA levels in kidney, additional 1-10-1 and 2-8-2 MOE gapmers, Balb/c mice (Example 15, Table 68); type: in vivo
# Procedure: 1-10-1 and 2-8-2 MOE gapmer short antisense compounds were designed to target different regions of the mouse SGLT2 RNA but have complementarity across species. […] All cytidine residues are 5-methylcytidines.
# The short antisense compounds were analyzed for their effect on mouse SGLT2 mRNA levels in vivo. Data was taken from three experiments in which male 6-week old Balb/c mice were dosed twice per week for three weeks with 0.5, 0.1, or 0.02 umol/kg of either a 1-10-1 or 2-8-2 MOE gapmer given by intraperitoneal injection. Mice were sacrificed 48 hours following last administration and evaluated for SGLT2 levels in kidney. Target levels were determined by RT, real-time PCR as described by other examples herein. PCR results were normalized to an internal ISIS control.
# mouse SGLT2 mRNA [5] = assay: Mouse SGLT2 mRNA levels in kidney, MOE versus Methyleneoxy BNA gapmers, Balb/c mice (Example 15, Table 69); type: in vivo
# Procedure: The effect of ISIS 379692 1-10-1 MOE gapmer and ISIS 388625 2-8-2 MOE gapmer are compared with the effect of ISIS 392170 1-10-1 Methyleneoxy BNA Gapmer and ISIS 392173 2-8-2 Methyleneoxy BNA Gapmer (see Table 69) on mouse SGLT2 mRNA levels in vivo. Data are taken from three experiments in which male 6-week old Balb/c mice were dosed twice per week for three weeks with 5, 25 and 125 nmol/kg of either the ISIS 379692 1-10-1 MOE gapmer or the ISIS 388625 2-8-2 MOE gapmer given by intraperitoneal injection. Mice were sacrificed 48 hours following last administration and evaluated for SGLT2 mRNA levels in kidney. Target levels were determined by RT, real-time PCR as described by other examples herein. PCR results were normalized to an internal ISIS control. The data are expressed as percent change (“+” indicates an increase, “−” indicates a decrease) relative to saline treated animals and are illustrated in Table 69.
# [6] = Day 10, 400 nM/kg i.p. once a week for twelve weeks
# [7] = Day 40, 400 nM/kg i.p. once a week for twelve weeks
# [8] = Day 55, 400 nM/kg i.p. once a week for twelve weeks
# [9] = Day 66, 400 nM/kg i.p. once a week for twelve weeks
# [10] = compared to PBS and control treated animals
# [11] = 5 nmol/kg i.p. twice per week for three weeks
# [12] = 25 nmol/kg i.p. twice per week for three weeks
# [13] = 125 nmol/kg i.p. twice per week for three weeks
substance,measurement,setting,value
"141923 (antisense CCTTCCCTGAAGGTTCCTCC; sugars from the 5' end e5 d10 e5, all phosphorothioate, methylation of C not given here) [compound 141923]",% PTEN mRNA levels in Fat,PTEN mRNA,118%
same,% PTEN mRNA levels in Kidney,PTEN mRNA,133%
same,% PTEN mRNA levels in Liver,PTEN mRNA,102%
same,ALT,[1],34.8 IU/L
same,AST,[1],89.5 IU/L
same,Liver Weight,[1],101 % Saline
same,Spleen Weight,[1],108 % Saline
384073 (antisense lG*lC*lT*dA*dG*d[5mC]*d[5mC]*dT*d[5mC]*dT*dG*dG*dA*lT*lT*lT) [compound 384073],% PTEN mRNA levels in Fat,PTEN mRNA,77%
same,% PTEN mRNA levels in Kidney,PTEN mRNA,74%
same,% PTEN mRNA levels in Liver,PTEN mRNA,24%
same,ALT,[1],29.3 IU/L
same,AST,[1],57.8 IU/L
same,Liver Weight,[1],115 % Saline
same,Spleen Weight,[1],111 % Saline
388625 (antisense eT*eG*dT*dT*d[5mC]*d[5mC]*dA*dG*d[5mC]*d[5mC]*e[5mC]*eA) [compound 388625],Plasma glucose levels,[2]; [6],435.5 mg/dL
same,Plasma glucose levels,[2]; [7],278.7 mg/dL
same,Plasma glucose levels,[2]; [8],213.8 mg/dL
same,Plasma glucose levels,[2]; [9],325.5 mg/dL
same,"Percentage HbA1c on specific dates, Day 40",[3],6.5%
same,"Percentage HbA1c on specific dates, Day 55",[3],5.8%
same,"Percentage HbA1c on specific dates, Day 68",[3],4.3%
388628 (antisense eT*eA*dG*d[5mC]*d[5mC]*dG*d[5mC]*d[5mC]*d[5mC]*dA*e[5mC]*eA) [compound 388628],Plasma glucose levels,[2]; [6],436.0 mg/dL
same,Plasma glucose levels,[2]; [7],502.0 mg/dL
same,Plasma glucose levels,[2]; [8],411.2 mg/dL
same,Plasma glucose levels,[2]; [9],668.8 mg/dL
same,"Percentage HbA1c on specific dates, Day 40",[3],8.0%
same,"Percentage HbA1c on specific dates, Day 55",[3],9.1%
same,"Percentage HbA1c on specific dates, Day 68",[3],7.8%
391172 (antisense lC*lT*dA*dG*dC*dC*dT*dC*dT*dG*dG*dA*lT*lT*lT) [compound 391172],% PTEN mRNA levels in Fat,PTEN mRNA,101%
same,% PTEN mRNA levels in Kidney,PTEN mRNA,63%
same,% PTEN mRNA levels in Liver,PTEN mRNA,18%
same,ALT,[1],32.8 IU/L
same,AST,[1],48.5 IU/L
same,Liver Weight,[1],120 % Saline
same,Spleen Weight,[1],112 % Saline
391871 (antisense [PALM-G]*eG*dT*dA*dC*dA*dT*dG*dG*dA*dA*dG*eT*e[5mC]) [compound 391871],% Inhib,ApoB mRNA; single i.p. dose 0.16 umol/kg,0%
same,% Inhib,ApoB mRNA; single i.p. dose 0.4 umol/kg,5%
same,% Inhib,ApoB mRNA; single i.p. dose 1.0 umol/kg,18%
391872 (antisense [PALM-G]*lG*dT*dA*dC*dA*dT*dG*dG*dA*dA*dG*lT*l[5mC]) [compound 391872],% Inhib,ApoB mRNA; single i.p. dose 0.16 umol/kg,18%
same,% Inhib,ApoB mRNA; single i.p. dose 0.4 umol/kg,50%
same,% Inhib,ApoB mRNA; single i.p. dose 1.0 umol/kg,92%
392061 (antisense l[5mC]*lT*dA*dG*dC*dC*dT*dC*dT*dG*dG*dA*lT*lT) [compound 392061],% PTEN mRNA levels in Fat,PTEN mRNA,85%
same,% PTEN mRNA levels in Kidney,PTEN mRNA,61%
same,% PTEN mRNA levels in Liver,PTEN mRNA,24%
same,ALT,[1],42.0 IU/L
same,AST,[1],189 IU/L
same,Liver Weight,[1],123 % Saline
same,Spleen Weight,[1],111 % Saline
ISIS 388626: SGLT2; GGCATGAGCTTC 2-8-2 MOE (antisense eG*eG*d[5mC]*dA*dT*dG*dA*dG*d[5mC]*dT*eT*e[5mC]),% change in SGLT2 expression relative to saline,mouse SGLT2 mRNA [4]; 0.02 umol/kg i.p. twice per week for three weeks,−45%
same,% change in SGLT2 expression relative to saline,mouse SGLT2 mRNA [4]; 0.1 umol/kg i.p. twice per week for three weeks,−60%
same,% change in SGLT2 expression relative to saline,mouse SGLT2 mRNA [4]; 0.5 umol/kg i.p. twice per week for three weeks,−80%
same,Plasma glucose levels,[2]; [6],434.7 mg/dL
same,Plasma glucose levels,[2]; [7],300.5 mg/dL
same,Plasma glucose levels,[2]; [8],219.8 mg/dL
same,Plasma glucose levels,[2]; [9],379.8 mg/dL
same,Plasma glucose levels,[2]; [10],significantly reduced
same,"Percentage HbA1c on specific dates, Day 40",[3],6.6%
same,"Percentage HbA1c on specific dates, Day 55",[3],5.9%
same,"Percentage HbA1c on specific dates, Day 68",[3],4.0%
same,HbA1C,[3]; [10],significantly reduced
ISIS 391871: ApoB; GGTACATGGAAGTC 1-1-10-2 2′-(butylacetomido)-palmitamide/MOE/MOE Unmodified cytosines in gap (antisense [PALM-G]*eG*dT*dA*dC*dA*dT*dG*dG*dA*dA*dG*eT*e[5mC]),estimated ED50,ApoB mRNA; single i.p. injection,13.1 mg/kg
ISIS 392170: SGLT2; 1-10-1 Methyleneoxy BNA Gapmer (antisense lT*dG*dT*dT*d[5mC]*d[5mC]*dA*dG*d[5mC]*d[5mC]*d[5mC]*lA),"SGLT2 mRNA, percent change relative to saline treated animals",mouse SGLT2 mRNA [5]; [11],−23 percent change
same,"SGLT2 mRNA, percent change relative to saline treated animals",mouse SGLT2 mRNA [5]; [12],−54 percent change
same,"SGLT2 mRNA, percent change relative to saline treated animals",mouse SGLT2 mRNA [5]; [13],−69 percent change
ISIS 392173: SGLT2; 2-8-2 Methyleneoxy BNA Gapmer (antisense lT*lG*dT*dT*d[5mC]*d[5mC]*dA*dG*d[5mC]*d[5mC]*l[5mC]*lA),"SGLT2 mRNA, percent change relative to saline treated animals",mouse SGLT2 mRNA [5]; [11],−44 percent change
same,"SGLT2 mRNA, percent change relative to saline treated animals",mouse SGLT2 mRNA [5]; [12],−57 percent change
same,"SGLT2 mRNA, percent change relative to saline treated animals",mouse SGLT2 mRNA [5]; [13],−75 percent change

# From patent US8188059B2, “Compounds and methods for modulating expression of GCGR” (Isis Pharmaceuticals, Inc., priority 2006, dated 2012)
